Measured values reported in patent US12171756B2, “NLRP3 modulators” (Innate Tumor Immunity, Inc., priority 2017, dated 2024).
Like-named read-outs stand apart in the source and are kept apart here.

How the values were obtained:
[1] = tested on: IL-1β production in PMA-differentiated THP-1 cells; experiment: Measurement of IL-1β production in PMA-differentiated THP-1 cells (ELISA, 4 hours); format: cell-based, human; details: assayed using one or more of the described procedures, read-out: NLRP3 hIL1B IC50
How it was run: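 THP-1 cells differentiated with PMA (10 μg/ml, 24 h), replated at 1×10^6 cells/ml in RPMI with 2% FBS and exposed to compounds (e.g. 0.1–100 μM, 1% DMSO final) for 4 hours. IL-1β in cell-free supernatant quantified by ELISA against vehicle control.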

human TLR7 = target: T1, human TLR7 (Homo sapiens, UniProt Q9NYK1); experiment: In vitro human TLR7 binding reporter assay (HEK-Blue, NF-kB/AP1-inducible SEAP); format: cell-based; details: HEK-Blue human TLR7 SEAP reporter cells; activity range classes; read-out: TLR7 Agonist EC50
T1 construct: host or cells: human HEK-Blue cells (HEK293-derived) co-expressing TLR7 and an NF-kB/AP1-inducible SEAP reporter
T1 sequence (Q9NYK1 27-1049): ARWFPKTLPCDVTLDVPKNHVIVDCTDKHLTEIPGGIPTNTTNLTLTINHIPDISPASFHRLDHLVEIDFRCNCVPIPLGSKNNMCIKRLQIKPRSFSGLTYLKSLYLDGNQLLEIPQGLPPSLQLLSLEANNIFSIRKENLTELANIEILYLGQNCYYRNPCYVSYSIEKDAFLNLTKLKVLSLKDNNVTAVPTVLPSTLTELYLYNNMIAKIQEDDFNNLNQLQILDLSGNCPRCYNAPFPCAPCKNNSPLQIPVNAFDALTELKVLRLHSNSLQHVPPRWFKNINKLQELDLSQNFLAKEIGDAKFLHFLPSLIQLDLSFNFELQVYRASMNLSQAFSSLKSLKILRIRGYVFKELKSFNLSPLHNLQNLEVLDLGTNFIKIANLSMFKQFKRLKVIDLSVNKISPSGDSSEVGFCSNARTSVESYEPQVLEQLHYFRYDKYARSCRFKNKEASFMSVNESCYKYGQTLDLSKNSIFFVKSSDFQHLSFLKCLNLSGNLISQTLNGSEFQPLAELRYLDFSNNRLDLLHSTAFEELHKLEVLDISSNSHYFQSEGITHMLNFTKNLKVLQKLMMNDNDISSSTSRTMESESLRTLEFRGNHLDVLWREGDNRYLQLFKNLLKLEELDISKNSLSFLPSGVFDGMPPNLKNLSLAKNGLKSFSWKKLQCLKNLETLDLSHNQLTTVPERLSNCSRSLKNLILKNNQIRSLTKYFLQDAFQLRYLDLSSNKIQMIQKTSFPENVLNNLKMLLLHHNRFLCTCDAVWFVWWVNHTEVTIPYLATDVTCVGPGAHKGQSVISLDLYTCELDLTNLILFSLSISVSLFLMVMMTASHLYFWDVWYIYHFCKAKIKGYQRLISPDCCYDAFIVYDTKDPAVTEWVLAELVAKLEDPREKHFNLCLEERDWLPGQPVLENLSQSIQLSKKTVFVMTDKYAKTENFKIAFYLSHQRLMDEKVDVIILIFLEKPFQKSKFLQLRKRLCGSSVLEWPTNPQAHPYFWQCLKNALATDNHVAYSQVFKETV
How it was run: (§1)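 EC50s come from NF-kB/AP1-driven SEAP secretion in HEK-Blue cells expressing TLR7 or TLR8, measured with Quanti-Blue after an 18 h compound incubation. Maximal response is defined by a 50 μM reference standard.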

human TLR8 = target: T2, human TLR8 (Homo sapiens, UniProt Q9NR97); experiment: In vitro human TLR8 binding reporter assay (HEK-Blue, NF-kB/AP1-inducible SEAP); format: cell-based; details: HEK-Blue human TLR8 SEAP reporter cells; activity range classes; read-out: TLR8 Agonist EC50
T2 construct: host or cells: human HEK-Blue cells (HEK293-derived) co-expressing TLR8 and an NF-kB/AP1-inducible SEAP reporter
T2 sequence (Q9NR97 27-1041): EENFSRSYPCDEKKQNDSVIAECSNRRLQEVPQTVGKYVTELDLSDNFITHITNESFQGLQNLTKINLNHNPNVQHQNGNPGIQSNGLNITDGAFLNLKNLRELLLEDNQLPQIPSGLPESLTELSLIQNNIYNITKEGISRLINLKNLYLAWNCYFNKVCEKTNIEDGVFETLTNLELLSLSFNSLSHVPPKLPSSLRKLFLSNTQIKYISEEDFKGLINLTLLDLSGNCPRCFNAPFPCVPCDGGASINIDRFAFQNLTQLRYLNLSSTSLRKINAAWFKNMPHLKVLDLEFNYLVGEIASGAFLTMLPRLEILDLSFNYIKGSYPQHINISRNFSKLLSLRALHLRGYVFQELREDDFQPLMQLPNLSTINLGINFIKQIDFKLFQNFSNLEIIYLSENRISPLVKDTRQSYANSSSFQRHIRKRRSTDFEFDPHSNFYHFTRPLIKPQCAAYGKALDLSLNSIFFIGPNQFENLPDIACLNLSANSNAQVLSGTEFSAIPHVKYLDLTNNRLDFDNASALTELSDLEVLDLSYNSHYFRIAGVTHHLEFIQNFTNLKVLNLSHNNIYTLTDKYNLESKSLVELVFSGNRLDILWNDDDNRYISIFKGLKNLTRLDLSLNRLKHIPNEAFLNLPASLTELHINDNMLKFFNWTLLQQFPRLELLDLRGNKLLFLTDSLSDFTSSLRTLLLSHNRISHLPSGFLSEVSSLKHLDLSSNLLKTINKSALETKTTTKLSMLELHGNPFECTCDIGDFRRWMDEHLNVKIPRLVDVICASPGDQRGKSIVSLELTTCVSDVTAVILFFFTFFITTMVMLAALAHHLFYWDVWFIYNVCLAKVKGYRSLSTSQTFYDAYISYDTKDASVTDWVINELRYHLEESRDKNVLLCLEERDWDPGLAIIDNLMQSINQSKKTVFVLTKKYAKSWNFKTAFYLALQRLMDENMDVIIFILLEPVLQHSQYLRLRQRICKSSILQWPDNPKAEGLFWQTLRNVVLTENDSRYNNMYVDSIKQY
How it was run: as §1

[2] = Homo sapiens, THP-1, human IL-1β production

Row | SMILES | IC50 [1, 2] | EC50 (human TLR7) | EC50 (human TLR8) | IC50 ([1]; human IL-1β production)
1 | Nc1cc(N[C@H]2CCCC[C@H]2O)c2ccc(-c3ccn[nH]3)cc2n1 [Compound 250] | – | > 100 µM | > 100 µM | 1.72 µM
2 | Nc1cc(N[C@H]2CCCC[C@@H]2O)c2ccc(-c3ccn[nH]3)cc2n1 [Compound 160] | 2.76 µM | > 100 µM | > 100 µM | –
3 | CCO[C@H]1COC[C@@H]1Nc1cc(N)nc2cc(-c3ccn[nH]3)ccc12 [Compound 291] | 1.67 µM | > 100 µM | > 100 µM | –
4 | Nc1cc(NCc2cncnc2)c2ccc(-c3ccn[nH]3)cc2n1 [Compound 317] | 0.69 µM | > 100 µM | > 100 µM | –
5 | Nc1cc(NCCn2cncn2)c2ccc(-c3ccn[nH]3)cc2n1 [Compound 163] | 0.16 µM | > 100 µM | > 100 µM | –
6 | Nc1cc(NCc2cn[nH]c2)c2ccc(-c3ccn[nH]3)cc2n1 [Compound 228] | 0.16 µM | > 100 µM | > 100 µM | –
7 | Nc1cc(NC[C@H]2COCCN2)c2ccc(-c3ccn[nH]3)cc2n1 [Compound 269] | 1.15 µM | > 100 µM | > 100 µM | –
8 | Nc1cc(NCCc2ccccn2)c2ccc(-c3ccn[nH]3)cc2n1 [Compound 151] | 0.31 µM | > 100 µM | > 100 µM | –
9 | Nc1cc(NCc2nc[nH]n2)c2ccc(-c3ccn[nH]3)cc2n1 [Compound 227] | 0.33 µM | > 100 µM | > 100 µM | –
10 | Nc1cc(NC2CCOC2)c2ccc(-c3ccn[nH]3)cc2n1 (stereo not drawn) [Compound 275] | 0.2 µM | > 100 µM | > 100 µM | –
11 | Nc1cc(NCc2cccnn2)c2ccc(-n3cccn3)cc2n1 [Compound 309] | 0.42 µM | > 100 µM | > 100 µM | –
12 | Nc1cc(NCCc2ccccn2)c2ccc(-n3cccn3)cc2n1 [Compound 293] | 0.87 µM | > 100 µM | > 100 µM | –
13 | Nc1cc(NCc2ncc[nH]2)c2ccc(-n3cccn3)cc2n1 [Compound 298] | 0.15 µM | > 100 µM | > 100 µM | –
14 | Nc1cc(N[C@H]2CCC[C@H]2O)c2ccc(-c3ccn[nH]3)cc2n1 [Compound 235] | 0.86 µM | > 100 µM | > 100 µM | –
15 | Cc1nc[nH]c1CNc1cc(N)nc2cc(-c3ccn[nH]3)ccc12 [Compound 237] | 2.57 µM | > 100 µM | > 100 µM | –
16 | Nc1cc(NC2CCCCC2)c2ccc(-c3ccn[nH]3)cc2n1 [Compound 281] | 0.58 µM | > 100 µM | > 100 µM | –
17 | Nc1cc(N2CCCOCC2)c2ccc(-c3ccn[nH]3)cc2n1 [Compound 265] | 0.35 µM | > 100 µM | > 100 µM | –
18 | Nc1cc(OCC2(CO)COC2)c2ccc(-c3ccsc3)cc2n1 [Compound 332, (3-(((2-amino-7-(thiophen-3-yl)quinolin-4-yl)oxy)methyl)oxetan-3-yl)methanol] | 0.65 µM | > 100 µM | > 100 µM | –
19 | Cc1nc(CNc2cc(N)nc3cc(-c4ccn[nH]4)ccc23)cs1 [Compound 156] | 0.2 µM | > 100 µM | > 100 µM | –
20 | Nc1cc(N[C@@H]2CCNC2)c2ccc(-c3ccn[nH]3)cc2n1 [Compound 323] | – | > 100 µM | > 100 µM | 5.72 µM
21 | Nc1cc(-n2ccnc2)c2ccc(-c3ccn[nH]3)cc2n1 [Compound 167, 4-(1H-imidazol-1-yl)-7-(1H-pyrazol-5-yl)quinolin-2-amine] | 8.33 µM | > 100 µM | > 100 µM | –
22 | Nc1cc(N2CC[C@H](O)C2)c2ccc(-c3ccn[nH]3)cc2n1 [Compound 142] | 1.43 µM | > 100 µM | > 100 µM | –
23 | Nc1cc(NCc2cnc[nH]2)c2ccc(-c3ccn[nH]3)cc2n1 [Compound 159] | 0.52 µM | > 100 µM | > 100 µM | –
24 | CS(=O)(=O)Nc1cccc(CNc2cc(N)nc3cc(-c4ccn[nH]4)ccc23)c1 [Compound 257] | 0.68 µM | > 100 µM | > 100 µM | –

Second part, the compound after the results:

Row | IC50 [1, 2] | EC50 (human TLR7) | EC50 (human TLR8) | IC50 ([1]; human IL-1β production) | SMILES
25 | 0.3 µM | > 100 µM | > 100 µM | – | C[C@@H](O)CNc1cc(N)nc2cc(-c3ccn[nH]3)ccc12 [Compound 133]
26 | 2.23 µM | > 100 µM | > 100 µM | – | CC(CO)(CO)COc1cc(N)nc2cc(-c3ccn[nH]3)ccc12 [Compound 194]
27 | 6.31 µM | > 100 µM | > 100 µM | – | CC(=O)NCCOc1cc(N)nc2cc(-c3ccn[nH]3)ccc12 [Compound 188]
28 | 0.78 µM | > 100 µM | > 100 µM | – | Nc1cc(OCCCO)c2ccc(-c3ccn[nH]3)cc2n1 [Compound 179]
29 | 1.55 µM | > 100 µM | > 100 µM | – | CN(C)C(=O)NCCNc1cc(N)nc2cc(-c3ccn[nH]3)ccc12 [Compound 208, 3-(2-((2-amino-7-(1H-pyrazol-5-yl)quinolin-4-yl)amino)ethyl)-1,1-dimethylurea]
30 | 0.93 µM | > 100 µM | > 100 µM | – | CC(C)(O)CCOc1cc(N)nc2cc(-c3ccn[nH]3)ccc12 [Compound 195]
31 | 13.3 µM | > 100 µM | > 100 µM | – | Nc1cc(O[C@H]2CCNC2=O)c2ccc(-c3ccn[nH]3)cc2n1 [Compound 199]
32 | 1.11 µM | > 100 µM | > 100 µM | – | Nc1cc(NC[C@H](O)CO)c2ccc(-c3ccn[nH]3)cc2n1 [Compound 153]
33 | 0.63 µM | > 100 µM | > 100 µM | – | Nc1cc(OCC2(CO)CC2)c2ccc(-c3ccn[nH]3)cc2n1 [Compound 192]
34 | 0.06 µM | > 100 µM | > 100 µM | – | N#CCCCNc1cc(N)nc2cc(-c3ccn[nH]3)ccc12 [Compound 222]
35 | 1.29 µM | > 100 µM | > 100 µM | – | COC(=O)NCCNc1cc(N)nc2cc(-c3ccn[nH]3)ccc12 [Compound 205, methyl (2-((2-amino-7-(1H-pyrazol-5-yl)quinolin-4-yl)amino)ethyl)carbamate]
